{"source": "patent US20190369111A1", "about": "“MOLECULAR KINETICS EVALUATION METHOD AND SCREENING METHOD” (Tokyo University of Science Foundation, priority 2016, published 2019)", "target": "T1, wild-type H-Ras protein (Homo sapiens, UniProt P01112)", "T1 construct": "an endogenous wild-type K-Ras protein and wild-type H-Ras protein in HeLa cells; endogenous in cells; host or cells: HeLa cells", "T1 sequence (P01112 whole entry)": "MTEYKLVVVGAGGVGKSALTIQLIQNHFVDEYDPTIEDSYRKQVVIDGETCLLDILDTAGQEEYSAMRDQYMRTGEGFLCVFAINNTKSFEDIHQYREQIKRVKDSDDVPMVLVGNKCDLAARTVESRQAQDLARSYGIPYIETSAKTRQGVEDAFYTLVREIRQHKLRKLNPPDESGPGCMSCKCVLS", "assay": "Degradation of endogenous wild-type H-Ras protein in HeLa cells, Western blot analysis", "type": "cell-based", "settings": "48 hours after addition", "method": "HeLa cells were seeded in a 24-well plate at a cell density of 8×10^4 cells/well, and then cultured under conditions of 37° C. and 5 vol % CO2 for 16 hours.\nAfter 16 hours from cell seeding, TUS-007 was added to HeLa cells as follows. As a medium, a serum-free medium (37° C.) in which 1 mass % L-glutamine solution (Sigma-Aldrich) was added to D-MEM (high D-glucose, phenol red, sodium pyruvate (Wako Pure Chemical Industries, Ltd.)) was used. It is noted that the L-glutamine solution was added immediately before use. A DMSO solution containing TUS-007 was mixed with the medium so that the concentration of DMSO was 1 vol %, and added to each well at 500 μL/well, and cultured under conditions of 37° C. and 5 vol % CO2. As a control, DMSO was used.\nThe medium was removed 48 hours after addition of TUS-007, and then PBS was added to wash the cells. […]\nAfter electrophoresis, proteins were transferred to a PVDF membrane (Immobion™-P, Millipore) under conditions of 100 V and 2 hours using a tank-type blotting device and a transfer buffer (25 mM Tris-HCl, 195 mM glycine, 0.01% SDS, 15% methanol). […] Subsequently, the membrane was treated with a chemiluminescence reagent Immobilon™ Western (Millipore), and then chemiluminescence was detected using a lumino image analyzer LAS-3000 (FUJIFILM Corporation). […]", "data": [{"smiles": "CC[C@@H](C)[C@H](NC(=O)CCCCCCNC(=O)[C@H](CC(C)C)NC(=O)CNC(=O)c1cc(Cl)ccc1Cl)C(=O)Nc1ccc2[nH]c(Cc3c[nH]c4ccccc34)nc2c1", "note": "[TUS-007]", "values": [{"measurement": "amount of endogenous wild-type H-Ras protein", "result": "reduced"}]}]}
